In patent US9464120B2, “Compositions for treatment of celiac disease” (ImmusanT, Inc., priority 2008, dated 2016):
Square brackets hold non-standard residues; d marks the D form. Peptide text beside a SMILES is read from it. pGlu = O=C1CC[C@@H](C(=O)O)N1

Key:
[1] = system: CD4+ T cells specific for NPL001; assay: Proliferation of transferred CFSE labelled NPL001-specific CD4+ T cells after subcutaneous administration (adoptive transfer model); type: in vivo; details: previous mouse studies
Source text: The interaction between NPL001 (SEQ ID NO:228) and cognate T cells in vivo has been modelled by developing transgenic Black-6 mice expressing functional HLA-DR3 and -DQ2 (but not murine MHC Class II molecules) on antigen presenting cells (APC) who are transferred 3×10^6 CFSE labelled CD4^+ T cells specific for NPL001 (Chen Z., et al., 2006). The donor mouse (HH8-1) is transgenic for the NPL001-specific T cell receptor and human CD4 expressed on T cells, and also expresses HLA-DR3 DQ2 on APC. Overall 96% of the CD4^+ T cells in the HH8-1 mouse are clonal and specific for NPL001 (results not shown).
Four days after subcutaneous administration (in the hind foot hock) of an equimolar mixture of NPL001, NPL002 and NPL003 in 50 μl saline, spleen, gut-draining mesenteric lymph nodes (MLN) and the local draining popliteal lymph nodes (PLN) are harvested. Isolated mononuclear cells are stained for hCD4, and the T-cell receptor α- and β-chains expressed on the HH8-1 NPL001-specific T cells (Vα8 and Vβ8). Proliferation of transferred CFSE labelled cells is measured as the % CFSE^pos cells having undergone one or more division, as indicated by dilution of CFSE staining.

[2] = Pharmacokinetics after bolus intradermal injection in an adult rat; type: in vivo
Description: To improve their chemical stability and increase resistance to exopeptidases, peptides were synthesised as acetate salts of “capped” N-pyroglutamate, C-amide: NPL001 (SEQ ID NO:228), NPL002 (SEQ ID NO:229) and NPL003 (SEQ ID NO:230) 15mers or 16mers with glutamate at sites predicted to be deamidated by tTG. Indeed, capping extended the half-lives of peptides from 10-12 minutes for free peptides: NPL033, NPL038, and NPL034 (SEQ ID NOs:13, 320 and 321) after bolus intradermal injection of 0.9 mg in 0.1 ml in an adult rat to 26-28 minutes with N-pyroglutamate and C-amidation (SEQ ID NOs:228, 229 and 230) or 19-24 minutes with N-acetylation and C-amidation (SEQ ID NOs:231, 232, and 233), (see Table 4).

CC(C)C[C@H](NC(=O)[C@@H]1CCC(=O)N1)C(=O)N[C@@H](CCC(N)=O)C(=O)N1CCC[C@H]1C(=O)N[C@@H](Cc1ccccc1)C(=O)N1CCC[C@H]1C(=O)N[C@@H](CCC(N)=O)C(=O)N1CCC[C@H]1C(=O)N[C@@H](CCC(=O)O)C(=O)N[C@@H](CC(C)C)C(=O)N1CCC[C@H]1C(=O)N[C@@H](Cc1ccc(O)cc1)C(=O)N1CCC[C@H]1C(=O)N[C@@H](CCC(N)=O)C(=O)N1CCC[C@H]1C(=O)N[C@@H](CCC(N)=O)C(N)=O [NPL001, pyroELQPFPQPELPYPQPQ-amide] ([pGlu]LQPFPQPELPYPQPQ-NH2)
bioactivity in vivo of a single dose [1]: bioactive in vivo | T1/2 half life ([2]; adult rat, intradermal bolus injection 0.9 mg in 0.1 ml saline of equimolar mixture): T1/2 28.20 minutes | AUC area under the curve (bioavailability) ([2]; rat, in vivo, 0.9 mg): AUC 89350 | half-life ([2]; rat, in vivo, intradermal bolus injection, 0.9 mg, adult rat, intradermal bolus injection 0.9 mg in 0.1 ml saline of equimolar mixture, read-out: T1/2 half life): 26 to 28 min
